Test results: ChEMBL document CHEMBL1159050, “2-Arylbenzoxazoles as CETP inhibitors: substitution and modification of the alpha-alkoxyamide moiety” (Bioorg Med Chem Lett, 2010)

What was measured:
[1] = target: T1, Cholesteryl ester transfer protein (Homo sapiens, UniProt P11597); assay: Inhibition of CETP assessed as cholesteryl ester transfer activity
T1 sequence (P11597 whole entry): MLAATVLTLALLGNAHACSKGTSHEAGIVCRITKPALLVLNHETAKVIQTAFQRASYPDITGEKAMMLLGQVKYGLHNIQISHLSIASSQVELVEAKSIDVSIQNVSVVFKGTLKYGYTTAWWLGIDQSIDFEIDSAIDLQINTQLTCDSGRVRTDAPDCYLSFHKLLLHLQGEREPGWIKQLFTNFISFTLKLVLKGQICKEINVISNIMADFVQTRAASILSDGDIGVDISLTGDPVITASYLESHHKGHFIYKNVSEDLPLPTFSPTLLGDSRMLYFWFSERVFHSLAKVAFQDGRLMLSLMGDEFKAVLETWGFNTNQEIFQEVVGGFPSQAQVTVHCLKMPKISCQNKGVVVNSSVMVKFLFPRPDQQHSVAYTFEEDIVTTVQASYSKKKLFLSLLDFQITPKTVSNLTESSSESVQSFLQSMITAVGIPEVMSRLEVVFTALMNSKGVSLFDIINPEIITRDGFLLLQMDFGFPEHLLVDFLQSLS

[2] = Oral bioavailability in mouse; format: ADME, organism-based; conditions: in vivo
[3] = Half life in mouse; format: ADME, organism-based; conditions: in vivo
[4] = Clearance in mouse; format: ADME, organism-based; conditions: in vivo

SMILES | IC50 [1] [nM] | also measured
Cc1ccccc1OCC(=O)Nc1ccc(-c2nc3cc(C#N)ccc3o2)cc1 | 130 | –
Cc1ccccc1OCC(=O)Nc1ccc(-c2nc3cc(Cl)ccc3o2)cc1 | 1110 | –
COc1ccc(OCC(=O)Nc2ccc(-c3nc4cc(Cl)ccc4o3)cc2)cc1 | 4570 | –
O=C(Nc1ccc(-c2nc3cc(Cl)ccc3o2)cc1)OCc1ccccc1 | > 30000 | –
N#Cc1ccc2oc(-c3ccc(NC(=O)COC(C(F)(F)F)C(F)(F)F)cc3)nc2c1 | 94 | bioavailability [2]: 4%
CC(C)(OCC(=O)Nc1ccc(-c2nc3cc(C#N)ccc3o2)cc1)C(F)(F)F | 51 | –
N#Cc1ccc2oc(-c3ccc(NC(=O)COC(C(F)(F)F)(C(F)(F)F)C(F)(F)F)cc3)nc2c1 | 151 | –
O=C(COc1ccccc1)Nc1ccc(-c2nc3cc(Cl)ccc3o2)cc1 | 4230 | –
CC(C)(C)OCC(=O)Nc1ccc(-c2nc3cc(C#N)ccc3o2)cc1 | 132 | –
COc1cccc(OCC(=O)Nc2ccc(-c3nc4cc(Cl)ccc4o3)cc2)c1 | 12900 | –
O=C(COc1cccc([N+](=O)[O-])c1)Nc1ccc(-c2nc3cc(Cl)ccc3o2)cc1 | 26500 | –
Cc1ccc(OCC(=O)Nc2ccc(-c3nc4cc(Cl)ccc4o3)cc2)cc1 | > 30000 | –
O=C(COc1ccc([N+](=O)[O-])cc1)Nc1ccc(-c2nc3cc(Cl)ccc3o2)cc1 | 2210 | –
O=C(CNc1ccccc1)Nc1ccc(-c2nc3cc(Cl)ccc3o2)cc1 | 8130 | –
CC(OCC(=O)Nc1ccc(-c2nc3cc(C#N)ccc3o2)cc1)(C(F)(F)F)C(F)(F)F | 44 | –
CCc1ccccc1OCC(=O)Nc1ccc(-c2nc3cc(Cl)ccc3o2)cc1 | 2590 | –
Cc1ccccc1OCC(=O)N(C)c1ccc(-c2nc3cc(Cl)ccc3o2)cc1 | > 30000 | –
CC(Oc1ccccc1)C(=O)Nc1ccc(-c2nc3cc(Cl)ccc3o2)cc1 (stereo not drawn) | > 30000 | –
N#Cc1cccc(OCC(=O)Nc2ccc(-c3nc4cc(Cl)ccc4o3)cc2)c1 | > 30000 | –
CCCc1ccccc1OCC(=O)Nc1ccc(-c2nc3cc(Cl)ccc3o2)cc1 | 2700 | –
O=C(COc1ccccc1C(F)(F)F)Nc1ccc(-c2nc3cc(Cl)ccc3o2)cc1 | 6390 | –
O=C(COc1ccccc1Cl)Nc1ccc(-c2nc3cc(Cl)ccc3o2)cc1 | 2150 | –
O=C(COc1cccc(F)c1)Nc1ccc(-c2nc3cc(Cl)ccc3o2)cc1 | 1990 | –
N#Cc1ccc(OCC(=O)Nc2ccc(-c3nc4cc(Cl)ccc4o3)cc2)cc1 | > 30000 | –

SMILES | IC50 [1] [nM] | also measured
O=C(COc1ccc(F)cc1)Nc1ccc(-c2nc3cc(Cl)ccc3o2)cc1 | 1770 | –
O=C(CSc1ccccc1)Nc1ccc(-c2nc3cc(Cl)ccc3o2)cc1 | > 30000 | –
O=C(COc1ccc(Cl)cc1)Nc1ccc(-c2nc3cc(Cl)ccc3o2)cc1 | 6810 | –
O=C(COc1cccc(Cl)c1)Nc1ccc(-c2nc3cc(Cl)ccc3o2)cc1 | 1250 | –
O=C(NCc1ccccc1)Nc1ccc(-c2nc3cc(Cl)ccc3o2)cc1 | > 30000 | –
N#Cc1ccc2oc(-c3ccc(NC(=O)COCc4ccccc4C(F)(F)F)cc3)nc2c1 | 505 | –
CCOCC(=O)Nc1ccc(-c2nc3cc(C#N)ccc3o2)cc1 | 1380 | –
CC(C)OCC(=O)Nc1ccc(-c2nc3cc(C#N)ccc3o2)cc1 | 613 | –
O=C(COc1cccc(C(F)(F)F)c1)Nc1ccc(-c2nc3cc(Cl)ccc3o2)cc1 | 1770 | –
O=C(COCc1ccccc1)Nc1ccc(-c2nc3cc(Cl)ccc3o2)cc1 | 6540 | –
O=C(CNCc1ccccc1)Nc1ccc(-c2nc3cc(Cl)ccc3o2)cc1 | 18100 | –
N#Cc1ccccc1OCC(=O)Nc1ccc(-c2nc3cc(Cl)ccc3o2)cc1 | > 30000 | –
O=C(COc1ccccc1F)Nc1ccc(-c2nc3cc(Cl)ccc3o2)cc1 | > 30000 | –
COc1ccccc1OCC(=O)Nc1ccc(-c2nc3cc(Cl)ccc3o2)cc1 | > 30000 | –
c1ccc(OCCNc2ccc(-c3nc4ccccc4o3)cc2)cc1 | 75900 | –
CC(C)OCCNc1ccc(-c2nc3cc(C#N)ccc3o2)cc1 | 890 | bioavailability [2]: 30%
CC(OCCNc1ccc(-c2nc3cc(C#N)ccc3o2)cc1)(C(F)(F)F)C(F)(F)F | 151 | half-life [3]: 7.3 h; clearance [4]: 31 mL/min/kg; bioavailability [2]: 20%
O=C(COc1ccccc1[N+](=O)[O-])Nc1ccc(-c2nc3cc(Cl)ccc3o2)cc1 | 4400 | –
O=C(COc1ccc(C(F)(F)F)cc1)Nc1ccc(-c2nc3cc(Cl)ccc3o2)cc1 | 810 | –
Cc1ccccc1CNC(=O)c1ccc(-c2nc3cc(Cl)ccc3o2)cc1 | > 30000 | –
Cc1ccccc1COCC(=O)Nc1ccc(-c2nc3cc(C#N)ccc3o2)cc1 | 1180 | –
O=S(=O)(Cc1ccccc1)Nc1ccc(-c2nc3cc(Cl)ccc3o2)cc1 | > 30000 | –
Cc1cccc(OCC(=O)Nc2ccc(-c3nc4cc(Cl)ccc4o3)cc2)c1 | 19300 | –
O=C(CCc1ccccc1)Nc1ccc(-c2nc3cc(Cl)ccc3o2)cc1 | > 30000 | –
